Reference: the kinase profiling compilation of Christmann-Franck et al. (2016)

Legend:
Assay in all cases: KINOMEscan competition binding
Settings in all cases: compound 2.0 µM
PAK3 (human) = PAK3 (human) (UniProt O75914)
STK25 (human) = STK25 (human) (UniProt O00506)
ERBB2 (human) = ERBB2 (human) (UniProt P04626)
NTRK3 (human) = NTRK3 (human) (UniProt Q16288)
SIK3 (human) = SIK3 (human) (UniProt Q9Y2K2)
MAP3K3 (human) = MAP3K3 (human) (UniProt Q99759)
INSR (human) = INSR (human) (UniProt P06213)
TIE1 (human) = TIE1 (human) (UniProt P35590)
PRKX (human) = PRKX (human) (UniProt P51817)
RPS6KA4 KD2 (human) = RPS6KA4 KD2 (human) (UniProt O75676)
MARK2 (human) = MARK2 (human) (UniProt Q7KZI7)
ACVR2A (human) = ACVR2A (human) (UniProt P27037)
DCLK1 (human) = DCLK1 (human) (UniProt O15075)
EPHA6 (human) = EPHA6 (human) (UniProt Q9UF33)
RIOK2 (human) = RIOK2 (human) (UniProt Q9BVS4)
Sequence of RIOK2 (human) (Q9BVS4 whole entry, looked up): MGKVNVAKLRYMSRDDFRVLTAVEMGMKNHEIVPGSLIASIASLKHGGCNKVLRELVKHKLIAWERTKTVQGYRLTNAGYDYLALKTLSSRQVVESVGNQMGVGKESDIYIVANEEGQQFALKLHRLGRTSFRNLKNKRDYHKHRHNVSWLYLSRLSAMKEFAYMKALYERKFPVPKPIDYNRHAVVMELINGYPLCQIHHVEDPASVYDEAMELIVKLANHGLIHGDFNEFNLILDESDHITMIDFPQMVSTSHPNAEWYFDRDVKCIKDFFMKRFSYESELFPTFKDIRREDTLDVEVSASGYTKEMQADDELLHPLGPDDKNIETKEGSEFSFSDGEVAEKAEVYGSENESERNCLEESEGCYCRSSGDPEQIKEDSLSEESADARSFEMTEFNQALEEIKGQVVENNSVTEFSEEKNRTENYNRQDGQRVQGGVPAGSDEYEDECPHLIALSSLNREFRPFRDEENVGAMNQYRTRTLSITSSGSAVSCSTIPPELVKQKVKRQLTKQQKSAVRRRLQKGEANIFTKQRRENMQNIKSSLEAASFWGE

PIP4K2B (human) = PIP4K2B (human) (UniProt P78356)
PIP4K2C (human) = PIP4K2C (human) (UniProt Q8TBX8)
RIPK2 (human) = RIPK2 (human) (UniProt O43353)
EPHA5 (human) = EPHA5 (human) (UniProt P54756)
Sequence of EPHA5 (human) (P54756 whole entry, looked up): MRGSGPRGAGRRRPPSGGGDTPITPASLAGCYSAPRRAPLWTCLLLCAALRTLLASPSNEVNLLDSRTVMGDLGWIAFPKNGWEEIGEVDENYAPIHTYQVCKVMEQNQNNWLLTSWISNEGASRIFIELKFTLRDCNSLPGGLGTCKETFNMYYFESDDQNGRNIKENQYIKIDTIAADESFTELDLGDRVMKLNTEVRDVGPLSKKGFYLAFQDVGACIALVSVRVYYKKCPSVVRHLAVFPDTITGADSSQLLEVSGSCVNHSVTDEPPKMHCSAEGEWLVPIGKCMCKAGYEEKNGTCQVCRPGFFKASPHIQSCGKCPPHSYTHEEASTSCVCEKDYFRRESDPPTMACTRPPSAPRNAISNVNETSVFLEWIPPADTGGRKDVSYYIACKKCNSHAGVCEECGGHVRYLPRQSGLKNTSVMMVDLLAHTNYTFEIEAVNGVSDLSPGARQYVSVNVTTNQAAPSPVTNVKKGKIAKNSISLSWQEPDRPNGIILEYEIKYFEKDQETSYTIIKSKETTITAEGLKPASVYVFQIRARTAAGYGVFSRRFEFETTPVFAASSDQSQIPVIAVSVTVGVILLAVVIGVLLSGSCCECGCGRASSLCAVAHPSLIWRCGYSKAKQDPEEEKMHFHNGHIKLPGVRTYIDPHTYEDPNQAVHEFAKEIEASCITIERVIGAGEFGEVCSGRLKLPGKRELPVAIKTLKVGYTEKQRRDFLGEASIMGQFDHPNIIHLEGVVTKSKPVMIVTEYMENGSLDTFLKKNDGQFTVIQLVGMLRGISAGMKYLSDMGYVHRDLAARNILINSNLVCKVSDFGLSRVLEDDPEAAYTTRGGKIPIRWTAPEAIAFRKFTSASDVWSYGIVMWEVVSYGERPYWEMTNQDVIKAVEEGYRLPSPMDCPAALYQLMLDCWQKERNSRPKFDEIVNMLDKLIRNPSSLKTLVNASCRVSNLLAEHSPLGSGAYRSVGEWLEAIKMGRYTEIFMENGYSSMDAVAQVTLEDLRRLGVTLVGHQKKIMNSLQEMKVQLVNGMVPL

STK32A (human) = STK32A (human) (UniProt Q8WU08)
STK17B (human) = STK17B (human) (UniProt O94768)
LIMK1 (human) = LIMK1 (human) (UniProt P53667)
PRKCE (human) = PRKCE (human) (UniProt Q02156)
SGK3 (human) = SGK3 (human) (UniProt Q96BR1)
PIK3CB (human) = PIK3CB (human) (UniProt P42338)
Sequence of PIK3CB (human) (P42338 whole entry, looked up): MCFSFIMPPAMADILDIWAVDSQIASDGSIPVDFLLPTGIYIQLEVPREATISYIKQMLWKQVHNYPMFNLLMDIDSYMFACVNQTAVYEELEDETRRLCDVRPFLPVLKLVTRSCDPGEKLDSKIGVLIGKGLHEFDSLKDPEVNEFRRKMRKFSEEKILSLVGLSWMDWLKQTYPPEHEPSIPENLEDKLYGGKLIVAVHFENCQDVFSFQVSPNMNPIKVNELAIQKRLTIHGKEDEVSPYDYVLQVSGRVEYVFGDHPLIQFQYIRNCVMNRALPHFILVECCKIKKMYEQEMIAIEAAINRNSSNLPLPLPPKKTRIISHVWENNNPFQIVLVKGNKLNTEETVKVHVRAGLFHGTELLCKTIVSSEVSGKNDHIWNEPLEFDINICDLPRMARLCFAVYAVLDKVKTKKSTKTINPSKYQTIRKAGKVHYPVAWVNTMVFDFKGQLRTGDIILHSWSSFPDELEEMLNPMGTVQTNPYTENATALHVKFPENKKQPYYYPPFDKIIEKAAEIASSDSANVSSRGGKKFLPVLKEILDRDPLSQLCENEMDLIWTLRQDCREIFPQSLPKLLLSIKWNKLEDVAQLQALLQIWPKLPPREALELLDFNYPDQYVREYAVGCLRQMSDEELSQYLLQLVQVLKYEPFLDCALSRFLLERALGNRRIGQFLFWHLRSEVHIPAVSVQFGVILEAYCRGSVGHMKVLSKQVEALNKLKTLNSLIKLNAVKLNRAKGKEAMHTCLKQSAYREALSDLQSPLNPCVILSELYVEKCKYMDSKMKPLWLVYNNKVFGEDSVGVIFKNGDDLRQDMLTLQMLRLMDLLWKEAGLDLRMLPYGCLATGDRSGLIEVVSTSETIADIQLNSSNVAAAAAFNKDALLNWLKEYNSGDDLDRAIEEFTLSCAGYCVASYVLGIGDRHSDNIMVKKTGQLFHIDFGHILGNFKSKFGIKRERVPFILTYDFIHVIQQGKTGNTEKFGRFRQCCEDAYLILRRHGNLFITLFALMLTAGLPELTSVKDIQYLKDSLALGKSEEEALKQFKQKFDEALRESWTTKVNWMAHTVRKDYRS

SGK110 (human) = SGK110 (human) (UniProt P0C264)
PHKG2 (human) = PHKG2 (human) (UniProt P15735)
TLK1 (human) = TLK1 (human) (UniProt Q9UKI8)
TRPM6 (human) = TRPM6 (human) (UniProt Q9BX84)
LATS1 (human) = LATS1 (human) (UniProt O95835)
LCK (human) = LCK (human) (UniProt P06239)
STK3 (human) = STK3 (human) (UniProt Q13188)
EPHB2 (human) = EPHB2 (human) (UniProt P29323)
STK38L (human) = STK38L (human) (UniProt Q9Y2H1)
SBK1 (human) = SBK1 (human) (UniProt Q52WX2)
CAMK1D (human) = CAMK1D (human) (UniProt Q8IU85)
SIK1 (human) = SIK1 (human) (UniProt P57059)
CDC42BPA (human) = CDC42BPA (human) (UniProt Q5VT25)
LTK (human) = LTK (human) (UniProt P29376)
PAK7 (human) = PAK7 (human) (UniProt Q9P286)
CDC42BPG (human) = CDC42BPG (human) (UniProt Q6DT37)
[1] = tested on: RET (human), P07949 [V804M]
TAOK1 (human) = TAOK1 (human) (UniProt Q7L7X3)

Sequence of ERBB2 (human) (P04626 whole entry, looked up): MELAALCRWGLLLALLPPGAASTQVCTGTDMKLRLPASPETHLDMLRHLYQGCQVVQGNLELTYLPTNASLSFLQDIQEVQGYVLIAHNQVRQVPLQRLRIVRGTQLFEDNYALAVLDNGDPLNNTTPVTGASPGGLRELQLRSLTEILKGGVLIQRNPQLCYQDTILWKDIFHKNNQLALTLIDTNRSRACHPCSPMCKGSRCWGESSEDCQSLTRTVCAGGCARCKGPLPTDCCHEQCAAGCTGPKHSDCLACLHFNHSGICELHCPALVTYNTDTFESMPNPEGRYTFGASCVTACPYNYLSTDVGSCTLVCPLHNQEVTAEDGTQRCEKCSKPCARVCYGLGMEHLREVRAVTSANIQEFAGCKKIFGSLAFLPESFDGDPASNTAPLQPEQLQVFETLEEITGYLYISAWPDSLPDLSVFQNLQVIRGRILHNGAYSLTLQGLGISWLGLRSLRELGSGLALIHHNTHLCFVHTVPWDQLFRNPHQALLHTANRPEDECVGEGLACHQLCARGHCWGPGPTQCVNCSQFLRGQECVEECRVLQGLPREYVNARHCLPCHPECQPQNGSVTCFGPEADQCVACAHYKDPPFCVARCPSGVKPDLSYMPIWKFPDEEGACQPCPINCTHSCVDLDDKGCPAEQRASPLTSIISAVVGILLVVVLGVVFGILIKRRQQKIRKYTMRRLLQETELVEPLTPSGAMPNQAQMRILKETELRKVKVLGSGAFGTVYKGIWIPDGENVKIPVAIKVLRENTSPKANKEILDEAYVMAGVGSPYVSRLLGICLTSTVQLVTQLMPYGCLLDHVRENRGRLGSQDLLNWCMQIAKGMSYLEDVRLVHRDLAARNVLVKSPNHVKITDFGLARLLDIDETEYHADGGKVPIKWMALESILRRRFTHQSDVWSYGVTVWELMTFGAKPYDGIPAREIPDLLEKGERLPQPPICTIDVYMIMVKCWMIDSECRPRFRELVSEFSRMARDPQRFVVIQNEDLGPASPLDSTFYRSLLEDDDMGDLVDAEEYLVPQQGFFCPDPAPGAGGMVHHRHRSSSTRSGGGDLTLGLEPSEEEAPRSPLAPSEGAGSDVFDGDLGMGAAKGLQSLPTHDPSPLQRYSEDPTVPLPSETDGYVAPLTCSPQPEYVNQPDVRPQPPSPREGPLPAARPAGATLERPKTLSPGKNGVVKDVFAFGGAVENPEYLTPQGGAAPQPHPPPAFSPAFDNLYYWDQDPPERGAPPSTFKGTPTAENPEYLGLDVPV
Sequence of NTRK3 (human) (Q16288 whole entry, looked up): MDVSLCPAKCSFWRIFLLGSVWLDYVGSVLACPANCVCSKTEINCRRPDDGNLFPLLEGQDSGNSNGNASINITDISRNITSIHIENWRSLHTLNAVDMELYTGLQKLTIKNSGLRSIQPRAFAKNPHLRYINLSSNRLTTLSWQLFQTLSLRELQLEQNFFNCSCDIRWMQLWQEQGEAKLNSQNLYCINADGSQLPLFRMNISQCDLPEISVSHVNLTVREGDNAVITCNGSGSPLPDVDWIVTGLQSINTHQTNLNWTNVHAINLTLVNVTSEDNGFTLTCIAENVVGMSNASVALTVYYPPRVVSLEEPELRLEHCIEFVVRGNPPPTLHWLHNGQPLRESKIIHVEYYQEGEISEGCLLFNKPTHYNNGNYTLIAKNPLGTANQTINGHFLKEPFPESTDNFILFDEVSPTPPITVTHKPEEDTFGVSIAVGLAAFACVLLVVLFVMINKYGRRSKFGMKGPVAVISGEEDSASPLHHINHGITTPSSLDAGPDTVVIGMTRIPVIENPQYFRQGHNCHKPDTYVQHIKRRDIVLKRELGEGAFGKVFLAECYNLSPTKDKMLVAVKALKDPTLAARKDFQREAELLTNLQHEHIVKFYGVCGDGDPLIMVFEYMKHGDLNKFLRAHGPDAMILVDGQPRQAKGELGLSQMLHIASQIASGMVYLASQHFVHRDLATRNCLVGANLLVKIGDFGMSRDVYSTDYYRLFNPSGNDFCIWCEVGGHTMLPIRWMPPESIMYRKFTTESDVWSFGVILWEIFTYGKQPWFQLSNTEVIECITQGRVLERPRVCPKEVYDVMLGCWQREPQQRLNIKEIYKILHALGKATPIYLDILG

N#Cc1ccc2ncnc(NCCc3ccc4ccccc4c3)c2c1
kinase still bound, per cent of control (PAK3 (human)): 100% | kinase still bound, per cent of control (STK25 (human)): 100% | kinase still bound, per cent of control (ERBB2 (human)): 94% | kinase still bound, per cent of control (NTRK3 (human)): 100% | kinase still bound, per cent of control (SIK3 (human)): 100% | kinase still bound, per cent of control (MAP3K3 (human)): 100% | kinase still bound, per cent of control (INSR (human)): 100% | kinase still bound, per cent of control (TIE1 (human)): 90% | kinase still bound, per cent of control (PRKX (human)): 93% | kinase still bound, per cent of control (RPS6KA4 KD2 (human)): 90% | kinase still bound, per cent of control (MARK2 (human)): 94% | kinase still bound, per cent of control (ACVR2A (human)): 100% | kinase still bound, per cent of control (DCLK1 (human)): 89% | kinase still bound, per cent of control (EPHA6 (human)): 100% | kinase still bound, per cent of control (RIOK2 (human)): 94% | kinase still bound, per cent of control (PIP4K2B (human)): 100% | kinase still bound, per cent of control (PIP4K2C (human)): 91% | kinase still bound, per cent of control (RIPK2 (human)): 100% | kinase still bound, per cent of control (EPHA5 (human)): 100% | kinase still bound, per cent of control (STK32A (human)): 100% | kinase still bound, per cent of control (STK17B (human)): 100% | kinase still bound, per cent of control (LIMK1 (human)): 100% | kinase still bound, per cent of control (PRKCE (human)): 100% | kinase still bound, per cent of control (SGK3 (human)): 100% | kinase still bound, per cent of control (PIK3CB (human)): 39% | kinase still bound, per cent of control (SGK110 (human)): 79% | kinase still bound, per cent of control (PHKG2 (human)): 100% | kinase still bound, per cent of control (TLK1 (human)): 92% | kinase still bound, per cent of control (TRPM6 (human)): 100% | kinase still bound, per cent of control (LATS1 (human)): 93% | kinase still bound, per cent of control (LCK (human)): 84% | kinase still bound, per cent of control (STK3 (human)): 74% | kinase still bound, per cent of control (EPHB2 (human)): 99% | kinase still bound, per cent of control (STK38L (human)): 90% | kinase still bound, per cent of control (SBK1 (human)): 100% | kinase still bound, per cent of control (CAMK1D (human)): 100% | kinase still bound, per cent of control (SIK1 (human)): 100% | kinase still bound, per cent of control (CDC42BPA (human)): 100% | kinase still bound, per cent of control (LTK (human)): 99% | kinase still bound, per cent of control (PAK7 (human)): 100% | kinase still bound, per cent of control (CDC42BPG (human)): 92% | kinase still bound, per cent of control [1]: 100% | kinase still bound, per cent of control (TAOK1 (human)): 96%
